Results reported in publication PMC11939276, “Identifying Baicalein as a Key Bioactive Compound in XueBiJing Targeting KEAP1: Implications for Antioxidant Effects” (Antioxidants, 2025).

Molecular target: T1, KEAP1 (Homo sapiens, UniProt Q14145)
T1 construct: recombinant KEAP1 protein (Sino Biological No. 11981-HNCB)
Experiment: SPR (Biacore X100, immobilized recombinant KEAP1); supported by CETSA-WB in MCF-7 lysate
Assay type: binding

T1 sequence (Q14145 whole entry): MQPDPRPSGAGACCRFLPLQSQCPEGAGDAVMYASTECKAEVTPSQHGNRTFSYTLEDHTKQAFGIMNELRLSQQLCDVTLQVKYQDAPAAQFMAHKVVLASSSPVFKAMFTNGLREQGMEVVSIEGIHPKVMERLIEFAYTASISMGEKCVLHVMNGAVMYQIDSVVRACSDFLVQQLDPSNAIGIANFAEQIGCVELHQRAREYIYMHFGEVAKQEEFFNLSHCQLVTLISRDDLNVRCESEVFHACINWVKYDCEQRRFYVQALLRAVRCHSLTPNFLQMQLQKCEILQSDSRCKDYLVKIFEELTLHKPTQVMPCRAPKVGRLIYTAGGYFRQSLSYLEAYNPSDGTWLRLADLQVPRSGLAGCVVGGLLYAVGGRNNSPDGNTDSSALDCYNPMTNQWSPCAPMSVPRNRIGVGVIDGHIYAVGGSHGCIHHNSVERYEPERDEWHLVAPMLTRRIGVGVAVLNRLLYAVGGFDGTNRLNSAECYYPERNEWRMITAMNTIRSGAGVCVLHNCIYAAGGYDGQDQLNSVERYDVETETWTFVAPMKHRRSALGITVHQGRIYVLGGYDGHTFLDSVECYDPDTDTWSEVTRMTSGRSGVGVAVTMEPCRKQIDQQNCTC

## O=c1cc(-c2ccccc2)oc2cc(O)c(O)c(O)c12 [Baicalein]
  Kd: 158 µM
